Test [1] concerns T47D (PI3Kα-H1047R) cell line. The test can be described thus: HTRF phospho-AKT(S473) cell assay in T47D cells. The class given is cell-based, human. Put shortly: (§1)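 pAKT(S473) in lysates read by HTRF after a 2 h, 37 °C compound exposure (12-point 1:3 series, max 0.5% DMSO). SKBR3 (wild type, top 10 μM) received 70 ng/ml PDGF-BB during the final 15 min; T47D (H1047R, top 5 μM) was unstimulated. IC50 values derived from the dose-response.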
Background: TR-FRET usually uses a lanthanide donor and a delayed reading to cut background.

Test [2] relates to SKBR3 (PI3Kα-Wild Type) cell line. Nature of the test: HTRF phospho-AKT(S473) cell assay in SKBR3 cells. It is filed as cell-based, human. Put shortly: as §1
The mark [3] stands for this setting: Homo sapiens; T47D (PI3Kα-H1047R) cells, HTRF phospho-AKT(S473), 2 hours compound incubation.
[4] abbreviates: Homo sapiens, SK-BR-3; SKBR3 (PI3Kα-Wild Type) cells, HTRF phospho-AKT(S473), 2 hours compound incubation, PDGF-BB stimulated.
The mark [5] stands for this setting: Homo sapiens; HTRF phospho-AKT(S473), T47D (PI3Kα-H1047R) cells, 2 hours compound incubation.
The mark [6] stands for this setting: Homo sapiens, SK-BR-3; HTRF phospho-AKT(S473), SKBR3 (PI3Kα-Wild Type) cells, 2 hours compound incubation, PDGF-BB stimulated.

The structures appear in SMILES notation.

For orientation: IC50 means the point on the concentration scale where inhibition reaches its midpoint. A lower IC50 goes with higher potency. Take `Cc1cc([C@@H](C)Nc2ccc(Cl)nc2C(=O)NS(C)(=O)=O)c2nc(N3Cc4cn([C@@H](C)C(F)(F)F)nc4C3)n(C)c(=O)c2c1` (relative stereo) [Compound 222, 6-chloro-3-(((R)-1-(3,6-dimethyl-4-oxo-2-(2-((R*)-1,1,1-trifluoropropan-2-yl)-2,6-dihydropyrrolo[3,4-c]pyrazol-5(4H)-yl)-3,4-dihydroquinazolin-8-yl)ethyl)amino)-N-(methylsulfonyl) picolinamide]: the IC50 is under 250 nM in test [1] (setting [3]) and 1000 to 5000 nM in test [2] (setting [4]).

Turning to `Cc1cc([C@@H](C)Nc2ccc(Cl)nc2C(=O)NS(C)(=O)=O)c2nc(N3CC[C@@H](Nc4ncccn4)C3)n(C)c(=O)c2c1` [Compound 541, 6-chloro-3-(((R)-1-(3,6-dimethyl-4-oxo-2-((R)-3-(pyrimidin-2-ylamino)pyrrolidin-1-yl)-3,4-dihydroquinazolin-8-yl)ethyl)amino)-N-(methylsulfonyl) picolinamide], the results for the IC50 in test [1] (setting [5]) and in test [2] (setting [6]) were under 250 nM and at least 5000 nM, respectively.

`Cc1cc([C@@H](C)Nc2ccc(Cl)nc2C(=O)NS(C)(=O)=O)c2nc(N3CCC(c4nn(C)cc4N(C)C)CC3)n(C)c(=O)c2c1` [Compound 308, (R)-6-chloro-3-((1-(2-(4-(4-(dimethylamino)-1-methyl-1H-pyrazol-3-yl)piperidin-1-yl)-3,6-dimethyl-4-oxo-3,4-dihydroquinazolin-8-yl)ethyl)amino)-N-(methylsulfonyl) picolinamide]: the IC50 is under 250 nM in test [1] (setting [3]) and at least 5000 nM in test [2] (setting [4]).

With `Cc1cc([C@@H](C)Nc2ccc(Cl)nc2C(=O)NS(C)(=O)=O)c2nc(N3C[C@@H]4[C@H](C3)[C@H]4c3ccnc(C)c3)n(C)c(=O)c2c1` [Compound 384, 6-chloro-3-(((R)-1-(3,6-dimethyl-2-((1R,5S,6S)-6-(2-methylpyridin-4-yl)-3-azabicyclo[3.1.0]hexan-3-yl)-4-oxo-3,4-dihydroquinazolin-8-yl)ethyl)amino)-N-(methylsulfonyl) picolinamide], the figures for the IC50 in test [1] (setting [3]) and in test [2] (setting [4]) were under 250 nM and 1000 to 5000 nM, respectively.

For the compound `Cc1cc([C@@H](C)Nc2ccc(Cl)nc2C(=O)NS(C)(=O)=O)c2nc(N3Cc4cn(-c5ccnn5C)nc4C3)n(C)c(=O)c2c1` [Compound 277, (R)-6-chloro-3-((1-(3,6-dimethyl-2-(2-(1-methyl-1H-pyrazol-5-yl)-2,6-dihydropyrrolo[3,4-c]pyrazol-5(4H)-yl)-4-oxo-3,4-dihydroquinazolin-8-yl)ethyl)amino)-N-(methylsulfonyl) picolinamide], the concentration for half-maximal inhibition (IC50) in test [1] (setting [3]) was under 250 nM; in test [2] (setting [4]), 1000 to 5000 nM.

Take `Cc1cc([C@@H](C)Nc2ccc(Cl)nc2C(=O)NS(C)(=O)=O)c2nc(N3Cc4n[nH]c(N)c4C3)n(C)c(=O)c2c1` [Compound 148, (R)-3-((1-(2-(3-amino-2,6-dihydropyrrolo[3,4-c]pyrazol-5(4H)-yl)-3,6-dimethyl-4-oxo-3,4-dihydroquinazolin-8-yl)ethyl)amino)-6-chloro-N-(methylsulfonyl) picolinamide]: the IC50 in test [1] (setting [3]) was 1000 to 5000 nM; in test [2] (setting [4]), at least 5000 nM.

For `C[C@@H](Nc1ccc(Cl)nc1C(=O)NS(C)(=O)=O)c1cc(Cl)cc2c(=O)n(C)c(N3C[C@@H]4[C@H](C3)[C@H]4c3ccn(C)n3)nc12` [Compound 451, 6-chloro-3-(((R)-1-(6-chloro-3-methyl-2-((1R,5S,6R)-6-(1-methyl-1H-pyrazol-3-yl)-3-azabicyclo[3.1.0]hexan-3-yl)-4-oxo-3,4-dihydroquinazolin-8-yl)ethyl)amino)-N-(methylsulfonyl) picolinamide], the half-maximal inhibitory concentration (IC50) is under 250 nM in test [1] (setting [5]) and 1000 to 5000 nM in test [2] (setting [6]).

For `Cc1cc([C@@H](C)Nc2ccc(Cl)nc2C(=O)NS(C)(=O)=O)c2nc(N3CC[C@H](Oc4cnn(C)c4)C3)n(C)c(=O)c2c1` [Compound 331, 6-chloro-3-(((R)-1-(3,6-dimethyl-2-((S)-3-((1-methyl-1H-pyrazol-4-yl)oxy)pyrrolidin-1-yl)-4-oxo-3,4-dihydroquinazolin-8-yl)ethyl)amino)-N-(methylsulfonyl) picolinamide], the IC50 was under 250 nM in test [1] (setting [3]) and 1000 to 5000 nM in test [2] (setting [4]).

In the case of `Cc1cc([C@@H](C)Nc2ccc(Cl)nc2C(=O)NS(C)(=O)=O)c2nc(N3C[C@@H]4[C@H](C3)[C@H]4c3n[nH]cc3Cl)n(C)c(=O)c2c1` [Compound 593, 6-chloro-3-(((R)-1-(2-((1R,5S,6R)-6-(4-chloro-1H-pyrazol-3-yl)-3-azabicyclo[3.1.0]hexan-3-yl)-3,6-dimethyl-4-oxo-3,4-dihydroquinazolin-8-yl)ethyl)amino)-N-(methylsulfonyl) picolinamide], the results for the half-inhibitory concentration (IC50) in test [1] (setting [5]) and in test [2] (setting [6]) were 250 to 500 nM and at least 5000 nM, respectively.

In the case of `CCn1c(N2CCc3nn(C)cc3C2)nc2c([C@@H](C)Nc3ccc(Cl)nc3C(=O)NS(C)(=O)=O)cc(C)cc2c1=O` [Compound 546, (R)-6-chloro-3-((1-(3-ethyl-6-methyl-2-(2-methyl-2,4,6,7-tetrahydro-5H-pyrazolo[4,3-c]pyridin-5-yl)-4-oxo-3,4-dihydroquinazolin-8-yl)ethyl)amino)-N-(methylsulfonyl) picolinamide], the IC50 was under 250 nM in test [1] (setting [5]) and 1000 to 5000 nM in test [2] (setting [6]).

Take `Cc1cc([C@@H](C)Nc2ccc(Cl)nc2C(=O)NS(C)(=O)=O)c2nc(-c3ccc(N4CCC(O)CC4)nc3)n(C)c(=O)c2c1` [Compound 177, (R)-6-chloro-3-((1-(2-(6-(4-hydroxypiperidin-1-yl)pyridin-3-yl)-3,6-dimethyl-4-oxo-3,4-dihydroquinazolin-8-yl)ethyl)amino)-N-(methylsulfonyl) picolinamide]: the results for the IC50 in test [1] (setting [3]) and in test [2] (setting [4]) were under 250 nM and 1000 to 5000 nM, respectively.

For `Cc1cc([C@@H](C)Nc2ccc(Cl)nc2C(=O)NS(C)(=O)=O)c2nc(N3CC[C@H](c4ccn(C)n4)CC3(C)C)n(C)c(=O)c2c1` (relative stereo) [Compound 323, 6-chloro-3-(((R)-1-(2-((R*)-2,2-dimethyl-4-(1-methyl-1H-pyrazol-3-yl)piperidin-1-yl)-3,6-dimethyl-4-oxo-3,4-dihydroquinazolin-8-yl)ethyl)amino)-N-(methylsulfonyl) picolinamide], the half-inhibitory concentration (IC50) in test [1] (setting [3]) was 250 to 500 nM; in test [2] (setting [4]), at least 5000 nM.

For the compound `Cc1cc([C@@H](C)Nc2ccc(Cl)nc2C(=O)NS(C)(=O)=O)c2nc(N3C[C@@H]4C[C@H](c5cc[nH]n5)[C@H]3C4)n(C)c(=O)c2c1` (relative stereo) [Compound 347, 3-(((R)-1-(2-((1R,4R,6R*)-6-(1H-pyrazol-3-yl)-2-azabicyclo[2.2.1]heptan-2-yl)-3,6-dimethyl-4-oxo-3,4-dihydroquinazolin-8-yl)ethyl)amino)-6-chloro-N-(methylsulfonyl) picolinamide], the IC50 in test [1] (setting [3]) was 250 to 500 nM; in test [2] (setting [4]) it was at least 5000 nM.

With `Cc1cc([C@@H](C)Nc2ccc(Cl)nc2C(=O)NS(C)(=O)=O)c2nc(N3C[C@@H]4[C@H](C3)[C@H]4c3ccnc(N(C)C)c3)n(C)c(=O)c2c1` [Compound 745, 6-chloro-3-(((R)-1-(2-((1R,5S,6S)-6-(2-(dimethylamino)pyridin-4-yl)-3-azabicyclo[3.1.0]hexan-3-yl)-3,6-dimethyl-4-oxo-3,4-dihydroquinazolin-8-yl)ethyl)amino)-N-(methylsulfonyl) picolinamide], the results for the IC50 in test [1] (setting [5]) and in test [2] (setting [6]) were 250 to 500 nM and at least 5000 nM, respectively.

In the case of `Cc1cc([C@@H](C)Nc2ccc(Cl)nc2C(=O)NS(C)(=O)=O)c2nc(N3CCC(c4ncn(CC(F)(F)F)n4)CC3)n(C)c(=O)c2c1` [Compound 469, (R)-6-chloro-3-((1-(3,6-dimethyl-4-oxo-2-(4-(1-(2,2,2-trifluoroethyl)-1H-1,2,4-triazol-3-yl)piperidin-1-yl)-3,4-dihydroquinazolin-8-yl)ethyl)amino)-N-(methylsulfonyl) picolinamide], the results for the 50% inhibitory concentration (IC50) in test [1] (setting [5]) and in test [2] (setting [6]) were 250 to 500 nM and at least 5000 nM, respectively.

As for `Cc1cc([C@@H](C)Nc2ccc(Cl)nc2C(=O)NS(C)(=O)=O)c2nc(N3CCC4(CCc5c[nH]nc54)CC3)n(C)c(=O)c2c1` [Compound 682, (R)-6-chloro-3-((1-(2-(4,5-dihydro-2H-spiro [cyclopenta[c]pyrazole-6,4′-piperidin]-1′-yl)-3,6-dimethyl-4-oxo-3,4-dihydroquinazolin-8-yl)ethyl)amino)-N-(methylsulfonyl) picolinamide], the IC50 is 250 to 500 nM in test [1] (setting [5]) and at least 5000 nM in test [2] (setting [6]).

Consider `Cc1cc([C@@H](C)Nc2ccc(Cl)nc2C(=O)NS(C)(=O)=O)c2nc(N3CC[C@H](c4cnc(C)c(C#N)c4)C3)n(C)c(=O)c2c1` (relative stereo) [Compound 656, 6-chloro-3-(((R)-1-(2-((R*)-3-(5-cyano-6-methylpyridin-3-yl)pyrrolidin-1-yl)-3,6-dimethyl-4-oxo-3,4-dihydroquinazolin-8-yl)ethyl)amino)-N-(methylsulfonyl) picolinamide], for which the 50% inhibitory concentration (IC50) lay in the range of 250 to 500 nM in test [1] (setting [5]) and 1000 to 5000 nM in test [2] (setting [6]).

Consider `Cc1cc([C@@H](C)Nc2ccc(Cl)nc2C(=O)NS(C)(=O)=O)c2nc(N3C[C@@H]4C[C@H]3C[C@H]4c3nn(C)cc3F)n(C)c(=O)c2c1` (relative stereo) [Compound 761, 6-chloro-3-(((R)-1-(2-((1R*,4S*,5S*)-5-(4-fluoro-1-methyl-1H-pyrazol-3-yl)-2-azabicyclo[2.2.1]heptan-2-yl)-3,6-dimethyl-4-oxo-3,4-dihydroquinazolin-8-yl)ethyl)amino)-N-(methylsulfonyl) picolinamide], for which the values for the IC50 in test [1] (setting [5]) and in test [2] (setting [6]) were 250 to 500 nM and 1000 to 5000 nM, respectively.

The values are drawn from US12281122B1, “PI3K inhibitors” (Cogent Biosciences, Inc., priority 2023, dated 2025).
